The values that follow come from ChEMBL document CHEMBL3745618, “Identification of Non-nucleoside Human Ribonucleotide Reductase Modulators” (J Med Chem, 2015).

In experiment [1] the test system is MDA-MB-231. Nature of the experiment: Growth inhibition of human MDA-MB-231 cells assessed as 1-relative growth at 1 uM after 3 days by DNA dye binding assay. The class given is functional.
Experiment [2] has as its system MDA-MB-231. Nature of the experiment: Growth inhibition of human MDA-MB-231 cells assessed as 1-relative growth at 10 uM after 3 days by DNA dye binding assay. The class given is functional.
A short description of experiment [3]: Growth inhibition of human HCT116 cells assessed as 1-relative growth at 10 uM after 3 days by DNA dye binding assay. The class given is functional, HCT-116.
Experiment [4] can be described thus: Growth inhibition of human HCT116 cells assessed as 1-relative growth at 1 uM after 3 days by DNA dye binding assay. Format: functional, HCT-116.
In experiment [5] the test system is MDA-MB-231. Nature of the experiment: Potentiation of gemcitabine-induced cytotoxicity against human MDA-MB-231 assessed as effective dose of gemcitabine at 2.5 uM after 72 hrs MTT assay (reference value: 0.92 uM). Format: functional.
The target of experiment [6] is T1, Ribonucleoside-diphosphate reductase large subunit (Homo sapiens, UniProt P23921).
T1 sequence (P23921 whole entry): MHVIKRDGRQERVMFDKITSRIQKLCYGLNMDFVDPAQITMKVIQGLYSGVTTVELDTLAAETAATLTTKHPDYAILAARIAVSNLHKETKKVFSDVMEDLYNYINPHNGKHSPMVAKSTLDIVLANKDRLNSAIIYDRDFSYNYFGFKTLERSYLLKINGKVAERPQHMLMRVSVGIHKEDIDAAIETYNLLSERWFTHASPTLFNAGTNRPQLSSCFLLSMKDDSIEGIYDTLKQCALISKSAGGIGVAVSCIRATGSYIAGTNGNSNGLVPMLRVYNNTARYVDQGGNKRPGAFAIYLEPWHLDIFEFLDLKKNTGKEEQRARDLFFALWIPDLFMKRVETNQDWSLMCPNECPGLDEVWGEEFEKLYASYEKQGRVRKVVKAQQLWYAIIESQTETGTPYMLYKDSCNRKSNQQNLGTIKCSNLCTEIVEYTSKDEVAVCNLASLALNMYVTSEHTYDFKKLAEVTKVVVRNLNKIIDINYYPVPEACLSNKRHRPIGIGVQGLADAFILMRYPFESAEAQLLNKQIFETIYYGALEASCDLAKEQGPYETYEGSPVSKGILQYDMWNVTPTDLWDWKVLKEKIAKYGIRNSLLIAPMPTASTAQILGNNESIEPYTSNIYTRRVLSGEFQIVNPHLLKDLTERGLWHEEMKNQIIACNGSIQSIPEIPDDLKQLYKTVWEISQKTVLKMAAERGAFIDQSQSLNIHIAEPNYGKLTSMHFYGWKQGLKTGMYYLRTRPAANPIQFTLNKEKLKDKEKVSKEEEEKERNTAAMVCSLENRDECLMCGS
Nature of the experiment: Inhibition of human ribonucleotide reductase M1 subunit expressed in Escherichia coli BL21 (DE3) using 14C-ADP as substrate by liquid scintillation counting analysis.

SMILES strings stand for the structures. Non-standard residues stand in square brackets, D forms with d. Residues, ends and D or L forms follow the SMILES beside them. Sar = CNCC(=O)O

In the case of `CCCCCCCCCCCCCCCC(=O)N[C@@H](CCCCN)C(=O)N[C@@H](CCCCN)C(=O)OC`, the results for the Activity (in the experiment on MDA-MB-231 [1]; in the experiment with MDA-MB-231 [2]; in experiment [3]) were -0.219, -0.089 and -0.089, respectively.

As for `CC(C)(NC(=O)CN1C(=O)c2ccccc2C1=O)C(=O)NCCCC[C@H](NC(=O)CC(O)(C(F)(F)F)C(F)(F)F)C(=O)O`, the Activity in experiment [4] is on record as 0.057; in the experiment with MDA-MB-231 [1], 0.057; with MDA-MB-231 [2], 0.608.

`CCCOc1ccc(C(=O)OCCN(CC)CC)cc1NS(=O)(=O)/C=C/c1ccccc1`: the Activity in experiment [4] is -0.033; with MDA-MB-231 [1], -0.033; in the experiment with MDA-MB-231 [2] it was 0.043; in experiment [3], 0.043.

In the case of `CCOC(=O)C(NC(=O)CN[C@H]1CCCc2sccc21)C(=O)OCC`, the figures for the Activity in the experiment on MDA-MB-231 [1] and in the experiment with MDA-MB-231 [2] were -0.199 and 0.531, respectively.

On to `CCCCCCCCCCCCCCNC(=O)[C@@H](N)CCN`, for which the Activity in experiment [4] is recorded as 0.072; in the experiment with MDA-MB-231 [1], 0.072; in the experiment on MDA-MB-231 [2], 0.69; in experiment [3], 0.69.

With `CCOC(=O)C[C@@H](CC(=O)NCCN[C@H](C)c1ccc(O)c(C(=O)OC)c1)OC(C)=O`, the Activity is 0.098 in experiment [4], 0.098 with MDA-MB-231 [1], 0.096 with MDA-MB-231 [2] and 0.096 in experiment [3].

Regarding `CCC(C)(C)c1ccc(OCCCCNC(=O)c2cc(Oc3ccc([N+](=O)[O-])cc3)c3ccccc3c2O)c(C(C)(C)CC)c1`, the Activity is 0.038 in experiment [4], 0.038 in the experiment on MDA-MB-231 [1] and 0.398 with MDA-MB-231 [2].

With `CC(NCCCCCO)c1cc(OCc2ccccc2)cc(OCc2ccccc2)c1` (stereo unspecified), the Activity in experiment [4] is listed as -0.076; in the experiment on MDA-MB-231 [1] it was -0.076; with MDA-MB-231 [2] it was 0.036; in experiment [3], 0.036.

Regarding `OC(COc1ccc(OCC(O)CN2CCN(C3c4ccccc4-c4ccccc43)CC2)cc1)CN1CCN(C2c3ccccc3-c3ccccc32)CC1` (stereo unspecified), the Activity in the experiment with MDA-MB-231 [1] is -0.396; in the experiment with MDA-MB-231 [2], 0.88; in experiment [3], 0.88. In the experiment with MDA-MB-231 [5], the ED came to 0.1 µM.

With `CNCC(=O)N[C@@H](CCCNC(=N)N)C(=O)N[C@H](C(=O)N[C@@H](Cc1ccc(O)cc1)C(=O)N[C@H](C(=O)N[C@@H](Cc1cnc[nH]1)C(=O)O)C(C)C)C(C)C` (H-[Sar]RVYVH-OH), the Activity is reported as 0.108 in experiment [4], 0.108 in the experiment on MDA-MB-231 [1], 0.158 in the experiment with MDA-MB-231 [2] and 0.158 in experiment [3].

As a reminder, the IC50 is the concentration needed to halve the response being measured. Higher therefore signals weaker potency in that assay. Turning to `NC(=O)NO` [HYDROXYUREA], the IC50 in experiment [6] is 997 µM.
